# In patent US11667602B2, “Compounds and their use” (AstraZeneca AB, priority 2020, dated 2023):
# Columns and labels:
# [1] = Rat Hepatocyte Stability (Test E); assay type: in vitro ADME; details: rat, hepatocytes, geometric mean if run multiple times
# Procedure, shortened: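 Run per the published AstraZeneca-type rat hepatocyte stability protocol (Wernevik et al. panel). Values are mean intrinsic clearance, Clint in μl/min/10^6 cells; geometric mean used for repeated runs.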
# Solubility (Test F) = assay type: physicochemical; details: arithmetic mean if run multiple times
# Method: The assay was conducted according to the Solubility Assay described in pages 164-167 of Wernevik, J. et al., “A Fully Integrated Assay Panel for Early Drug Metabolism and Pharmacokinetics Profiling”, Assay and Drug Development Technologies, 2020, 18(4), 157-179. Data are reported in Table 36 as solubility ([…]. Where the assay was run multiple times for the same compound, the arithmetic mean is reported.
# human RXFP1 = target: T1, human RXFP1 (Homo sapiens, UniProt Q9HBX9); experiment: RXFP1 Hu cAMP (Test A); assay type: cell-based; parameters: expressed in transfected cells; host or cells: Jump-In T-REx CHO-K1 cells (ThermoFisher), induced with 10 ng/ml doxycycline for 24 h; details: RXFP1 Hu cAMP; for EC50: read-out: Test A EC50
# T1 sequence (Q9HBX9 1-757): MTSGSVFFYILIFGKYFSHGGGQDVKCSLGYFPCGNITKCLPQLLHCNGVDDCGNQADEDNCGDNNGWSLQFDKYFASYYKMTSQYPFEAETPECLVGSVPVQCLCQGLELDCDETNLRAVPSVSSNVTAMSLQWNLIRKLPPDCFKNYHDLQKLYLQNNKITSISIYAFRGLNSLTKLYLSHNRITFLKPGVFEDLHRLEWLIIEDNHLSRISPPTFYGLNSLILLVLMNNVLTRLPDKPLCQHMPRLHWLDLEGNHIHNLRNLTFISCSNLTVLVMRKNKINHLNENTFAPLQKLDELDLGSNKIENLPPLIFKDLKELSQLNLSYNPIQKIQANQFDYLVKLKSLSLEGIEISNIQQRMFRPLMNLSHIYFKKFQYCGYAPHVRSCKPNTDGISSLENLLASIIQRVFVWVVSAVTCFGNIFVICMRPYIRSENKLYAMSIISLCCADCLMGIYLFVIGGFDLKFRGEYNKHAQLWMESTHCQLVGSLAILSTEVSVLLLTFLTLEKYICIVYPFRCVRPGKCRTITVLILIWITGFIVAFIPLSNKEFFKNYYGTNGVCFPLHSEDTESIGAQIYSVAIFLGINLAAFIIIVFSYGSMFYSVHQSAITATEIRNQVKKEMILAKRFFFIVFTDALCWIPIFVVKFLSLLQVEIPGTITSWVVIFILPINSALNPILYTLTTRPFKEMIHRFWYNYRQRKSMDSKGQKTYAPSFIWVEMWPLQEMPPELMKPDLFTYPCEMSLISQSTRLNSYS
# Procedure, shortened: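 Doxycycline-induced (10 ng/ml, 24 h) CHO-K1 cells stably expressing human RXFP1; cAMP read by competitive HTRF after 2 h at room temperature, with 0.5 mM IBMX final.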
# [2] = Human Plasma Protein Binding (Test B); assay type: in vitro ADME; details: fraction unbound (fu)
# Procedure, shortened: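 Human plasma protein binding run per the published Wernevik et al. (2020) integrated DMPK panel protocol. Values are fraction unbound (fu, % free); repeat runs averaged arithmetically.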
# [3] = Human Liver Microsomal Stability (Test C); assay type: in vitro ADME; details: human, liver microsomes
# Procedure, shortened: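 Human liver microsome incubation per the Wernevik et al. integrated DMPK panel protocol. Intrinsic clearance reported as CLint in μl/min/mg protein, averaged arithmetically over repeat runs.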
Structure (SMILES),hepatocyte CLint [1],solubility (Solubility (Test F)),Test A Sinf (human RXFP1),EC50 (human RXFP1),Test B Human Plasma Protein Binding (% free) [2],microsomal CLint [3]
COc1cc(F)c(O[C@H]2CC[C@@H](C(=O)O)CC2)cc1C(=O)N[C@@H]1[C@H]2CC[C@H](C2)[C@@H]1C(=O)Nc1ccc(Br)c(C(F)(F)F)c1 [Example 23],19 µL/min/1e6 cells,8.7 µM,109%,20 nM,0.24 % free,26 µL/min/mg
"COc1cc(F)c(O[C@H]2CC[C@@H](C(=O)O)CC2)cc1C(=O)N[C@H]1[C@@H](C(=O)Nc2ccc(F)c(C(F)(F)F)c2)[C@H]2CC[C@@H]1O2 [Example 49, (1R,4s)-4-(2-Fluoro-5-(((1S,2S,3R,4R)-3-((4-fluoro-3-(trifluoromethyl)phenyl)carbamoyl)-7-oxabicyclo[2.2.1]heptan-2-yl)carbamoyl)-4-methoxyphenoxy)cyclohexane-1-carboxylic acid]",< 1 µL/min/1e6 cells,24 µM,,> 50000 nM,3.2 % free,< 3 µL/min/mg
COc1cc(C#N)c(O[C@H]2CC[C@@](C)(C(=O)O)CC2)cc1C(=O)N[C@@H]1[C@H]2CC[C@H](C2)[C@@H]1C(=O)NC1(C#N)CC1 [Example 72],14 µL/min/1e6 cells,950 µM,75%,> 3100 nM,40 % free,< 3 µL/min/mg
COc1cc(C#N)c(O[C@H]2CC[C@@](C)(C(=O)O)CC2)cc1C(=O)N[C@@H]1[C@H]2CC[C@H](C2)[C@@H]1C(=O)NCC1CC(C)(C)C1 [Example 87],24 µL/min/1e6 cells,690 µM,109%,110 nM,6.7 % free,20 µL/min/mg
COc1cc(C#N)c(O[C@H]2CC[C@@](C)(C(=O)O)CC2)cc1C(=O)N[C@@H]1[C@H]2CC[C@H](C2)[C@@H]1C(=O)NCC1(O)CCCCCC1 [Example 103],38 µL/min/1e6 cells,860 µM,,> 5000 nM,10 % free,11 µL/min/mg
COc1cc(C#N)c(O[C@H]2CC[C@@](C)(C(=O)O)CC2)cc1C(=O)N[C@@H]1[C@H]2CC[C@H](C2)[C@@H]1C(=O)N[C@H]1C[C@@H](C)C1 [Example 73],18 µL/min/1e6 cells,850 µM,114%,220 nM,12 % free,11 µL/min/mg
"COc1cc(F)c(O[C@H]2CC[C@@H](C(=O)O)CC2)cc1C(=O)N[C@@H]1[C@H]2CC[C@H](C2)[C@@H]1C(=O)Nc1cc(C(F)(F)F)cc(C(F)(F)F)c1 [Example 22, (1S,4s)-4-(5-(((1S,2R,3S,4R)-3-((3,5-Bis(trifluoromethyl)phenyl)carbamoyl)bicyclo[2.2.1]heptan-2-yl)carbamoyl)-2-fluoro-4-methoxyphenoxy)cyclohexane-1-carboxylic acid]",14 µL/min/1e6 cells,51 µM,130%,,0.23 % free,23 µL/min/mg
COc1cc(F)c(O[C@H]2CC[C@@H](C(=O)O)CC2)cc1C(=O)N[C@@H]1[C@H]2CC[C@H](C2)[C@@H]1C(=O)Nc1cccc(OC(F)(F)F)c1F [Example 18],49 µL/min/1e6 cells,400 µM,105%,,1.2 % free,27 µL/min/mg
COc1cc(F)c(O[C@H]2CC[C@@](C)(C(=O)O)CC2)cc1C(=O)N[C@@H]1[C@H]2CC[C@H](C2)[C@@H]1C(=O)NCC1(CF)CC1 [Example 48],18 µL/min/1e6 cells,1000 µM,96%,380 nM,13 % free,< 3 µL/min/mg
COc1cc(F)c(-c2ccc3c(c2)OC[C@H]3CC(=O)O)cc1C(=O)N[C@@H]1[C@H]2CC[C@H](C2)[C@@H]1C(=O)Nc1cccc(S(=O)(=O)C(F)(F)F)c1 [Example 253],8.8 µL/min/1e6 cells,> 1000 µM,102%,31 nM,<0.32 % free,24 µL/min/mg
COc1cc(F)c(-c2ccc(OCC(=O)O)nc2)cc1C(=O)N[C@@H]1[C@H]2CC[C@H](C2)[C@@H]1C(=O)Nc1cccc(S(=O)(=O)C(F)(F)F)c1 [Example 241],12 µL/min/1e6 cells,550 µM,99%,140 nM,0.69 % free,12 µL/min/mg
COc1cc(F)c(O[C@H]2CC[C@@H](C(=O)O)CC2)cc1C(=O)N[C@@H]1[C@H]2CC[C@H](C2)[C@@H]1C(=O)Nc1cccc(Cl)c1 [Example 25],130 µL/min/1e6 cells,440 µM,102%,420 nM,0.59 % free,31 µL/min/mg
COc1cc(F)c(O[C@H]2CC[C@@H](C(=O)O)CC2)cc1C(=O)N[C@@H]1[C@H]2CC[C@H](C2)[C@@H]1C(=O)Nc1cccc(C(F)(F)F)c1 [Example 193],61 µL/min/1e6 cells,> 1000 µM,105%,62 nM,0.93 % free,29 µL/min/mg
CCCC1(CNC(=O)[C@H]2[C@@H]3CC[C@@H](C3)[C@H]2NC(=O)c2cc(O[C@H]3CC[C@@](C)(C(=O)O)CC3)c(C#N)cc2OC)CCC1 [Example 83],25 µL/min/1e6 cells,250 µM,111%,17 nM,1.6 % free,130 µL/min/mg
COc1cc(C#N)c(O[C@H]2CC[C@@](C)(C(=O)O)CC2)cc1C(=O)N[C@@H]1[C@H]2CC[C@H](C2)[C@@H]1C(=O)NCC(=O)NC(C)C [Example 85],15 µL/min/1e6 cells,920 µM,,> 9400 nM,50 % free,< 3 µL/min/mg
COc1cc(F)c(OCCCCC(=O)O)cc1C(=O)N[C@H]1[C@@H](C(=O)Nc2cccc(S(=O)(=O)C(F)(F)F)c2)[C@@H]2C=C[C@H]1C2 (racemic) [Example 451],68 µL/min/1e6 cells,700 µM,127%,310 nM,0.93 % free,15 µL/min/mg
COc1cc(F)c(O[C@H]2CC[C@@H](C(=O)O)CC2)cc1C(=O)N[C@@H]1[C@H]2CC[C@H](C2)[C@@H]1C(=O)Nc1cccc(S(F)(F)(F)(F)F)c1 [Example 182],35 µL/min/1e6 cells,200 µM,107%,19 nM,0.45 % free,34 µL/min/mg
COc1cc(C#N)c(O[C@H]2CC[C@@](C)(C(=O)O)CC2)cc1C(=O)N[C@@H]1[C@H]2CC[C@H](C2)[C@@H]1C(=O)NC1(C2CC2)CC1 [Example 112],17 µL/min/1e6 cells,830 µM,95%,470 nM,16 % free,6.8 µL/min/mg
"COc1cc(C#N)c(O[C@H]2C[C@]3(C2)C[C@H](C(=O)O)C3)cc1C(=O)N[C@@H]1[C@H]2CC[C@H](C2)[C@@H]1C(=O)NCC1(C)CCC1 (single isomer, unassigned) [Example 7, (2R*,4r,6R)-6-(2-Cyano-4-methoxy-5-(((1S,2R,3S,4R)-3-(((1-methylcyclobutyl)methyl)carbamoyl)bicyclo[2.2.1]heptan-2-yl)carbamoyl)phenoxy)spiro[3.3]heptane-2-carboxylic acid]",23 µL/min/1e6 cells,820 µM,86%,1300 nM,4.4 % free,23 µL/min/mg
